Test results: patent US4017611A, “Control of insects with 3-hydroxymethacrylic acid methyl ester dimethylthionophosphate” (priority 1970, dated 1977)
Where two headings read alike, the source gives them in different places.

Assays:
adult houseflies = test: Gas action against adult houseflies; assay type: in vivo, Musca domestica (housefly); conditions: 10 mg active substance, 2 liter glass cylinder
Protocol: Using a pipette 10 mg of active substance were placed on a watch glass which was then covered with a wire mesh and placed in a 2 liter glass cylinder. Immediately thereafter 30 houseflies were introduced into the container which was then sealed.
A comparative test between compound 1 and PHOSDRIN (Registered Trade Mark) carried out according to this method gave the following mortality periods in minutes for 10%, 50% and 100% kill of the test animals.

[1] = Acute oral toxicity (warm blooded toxicity) in rats; conditions: rat, in vivo, po
rats = test: as above; conditions: orally, rats
[2] = tested on: one day old houseflies (Musca domestica); test: Ingestion test with one day old houseflies; assay type: in vivo; conditions: read-out: % flies killed; for mortality at 0.4 ppm: 0.4 ppm in 30% sugar water; for mortality at 0.8 ppm: 0.8 ppm in 30% sugar water; for mortality at 1.5 ppm: 1.5 ppm in 30% sugar water; for mortality at 3 ppm: 3 ppm in 30% sugar water; for mortality at 6 ppm: 6 ppm in 30% sugar water; for mortality at 12 ppm: 12 ppm in 30% sugar water; for mortality at 25 ppm: 25 ppm in 30% sugar water; for mortality at 50 ppm: 50 ppm in 30% sugar water; for mortality at 100 ppm: 100 ppm in 30% sugar water
Protocol: Dilution series were manufactured with water. As solvent for the test preparations and similarly as a nutrition agent for the flies, 30% sugar water was used which had been coloured with chlorantin light red (as an attractant). The dilutions were tested with one day old houseflies. The 1, 2 and 4 hour controls enabled the speed of action to be determined. By means of the 24 hour control the limit concentration (action strength) could also be determined.

For COC(=O)C=C(C)OP(=O)(OC)OC [Phosdrin, reference compound], the “Mortality time for 10% of the houseflies” value (adult houseflies; 10% kill) was 22 min, the “Mortality time for 50% of the houseflies” value (adult houseflies; 50% kill) was 25 min and the “Mortality time for 100% of the houseflies” value (adult houseflies; 100% kill) was 30 min. The LD50 [1] was 3 to 7 mg/kg, the “warm blooded toxicity LD50” value (rats) was 3-7 mg/kg body weight and the mortality at 0.4 ppm ([2]; 1 hour) was 0%. For the same compound, the mortality at 0.4 ppm ([2]; 2 hours) was 0%, the mortality at 0.4 ppm ([2]; 4 hours) was 0% and the mortality at 0.4 ppm ([2]; 24 hours) was 0%. It also gave a mortality at 0.8 ppm ([2]; 1 hour) of 0%, a mortality at 0.8 ppm ([2]; 2 hours) of 0% and a mortality at 0.8 ppm ([2]; 4 hours) of 0%. It also gave a mortality at 0.8 ppm ([2]; 24 hours) of 0%, a mortality at 1.5 ppm ([2]; 1 hour) of 0% and a mortality at 1.5 ppm ([2]; 2 hours) of 0%. For the same compound, the mortality at 1.5 ppm ([2]; 4 hours) was 0%, the mortality at 1.5 ppm ([2]; 24 hours) was 0% and the mortality at 3 ppm ([2]; 1 hour) was 0%. It also gave a mortality at 3 ppm ([2]; 2 hours) of 0%, a mortality at 3 ppm ([2]; 4 hours) of 0% and a mortality at 3 ppm ([2]; 24 hours) of 20%. The mortality at 6 ppm ([2]; 1 hour) was 0%, the mortality at 6 ppm ([2]; 2 hours) was 0% and the mortality at 6 ppm ([2]; 4 hours) was 10%. The mortality at 6 ppm ([2]; 24 hours) was 80%, the mortality at 12 ppm ([2]; 1 hour) was 0% and the mortality at 12 ppm ([2]; 2 hours) was 0%. It also gave a mortality at 12 ppm ([2]; 4 hours) of 20%, a mortality at 12 ppm ([2]; 24 hours) of 90% and a mortality at 25 ppm ([2]; 1 hour) of 20%. It also gave a mortality at 25 ppm ([2]; 2 hours) of 40%, a mortality at 25 ppm ([2]; 4 hours) of 60% and a mortality at 25 ppm ([2]; 24 hours) of 100%. For the same compound, the mortality at 50 ppm ([2]; 1 hour) was 30%, the mortality at 50 ppm ([2]; 2 hours) was 70% and the mortality at 50 ppm ([2]; 4 hours) was 80%. The mortality at 50 ppm ([2]; 24 hours) was 100%, the mortality at 100 ppm ([2]; 1 hour) was 100% and the mortality at 100 ppm ([2]; 2 hours) was 100%. It also gave a mortality at 100 ppm ([2]; 4 hours) of 100% and a mortality at 100 ppm ([2]; 24 hours) of 100%.
